The NIST ThermoML archive (doi:10.1016/j.tca.2010.09.010)
Numbers after ± are expanded uncertainties.

Settings: Crystal, TG

[Cd+2].[I-].[I-] [cadmium iodide (CdI2)]
Settings | vapor or sublimation pressure [kPa]
740 K | 0.2888 ± 0.073
745 K | 0.3252 ± 0.082
750 K | 0.3668 ± 0.092
755 K | 0.4124 ± 0.1
760 K | 0.4631 ± 0.12
765 K | 0.5198 ± 0.13
770 K | 0.5826 ± 0.15
